pKd, pKi: −log10 of the molar value.

The source of these data is patent US20260200924A1, “CANNABINOID RECEPTOR 1 ANTAGONISTS AND USES” (RESEARCH TRIANGLE INSTITUTE, priority 2022, published 2026).

One data set can be described thus: HLM stability. The data set is classed as in vitro ADME. The following applies: for HLM HL: HLM half-life; for microsomal CLint: human, liver microsomes, HLM clearance, read-out: HLM Cl.
Data set [1] addresses T1, human CB1 (Homo sapiens, UniProt P21554).
T1 construct: expressed in transfected cells; host or cells: CHO cells co-expressing Gqα16
Description: functional fluorescent calcium mobilization assay, antagonism of CP55,940 (Ke). The conditions noted are these: for pKd: apparent equilibrium dissociation constant, CHO cells expressing human CB1 along with Gqα16, agonist CP55,940, read-out: Ke hCB1. The data set is classed as cell-based. The method, then:
A functional fluorescent calcium mobilization was performed in CHO cells expressing human CB1 along with Gqα16. In FIG. 1A, a concentration-dependent increase in fluorescence upon treatment with the CB1 agonist CP55,940 is shown (solid line/triangle markers). […] The EC50 values in the presence and absence of the antagonist are used to calculate antagonist apparent equilibrium dissociation constant (Ke). Suppression of basal signaling in the absence of any stimulation/agonism was measured using the same approach. […] Provided data are representative of a minimum of three experiments and were fitted using non-linear regression analyses in GraphPad Prism.

The next data set concerns the target human CB2 (Homo sapiens, UniProt P34972). Description: radioligand displacement assay using [3H]CP55940 in CHO cell membrane preparations (CB2, for selectivity). The format is binding. The conditions noted are these: ratio of Ki human CB2 / human CB1. The source says: (§1) See Ki values above, based on radioligand displacement assay using ^3H-CP55940, a synthetic cannabinoid, (−)-cis-3-[2-hydroxy-4-(1,1-dimethylheptyl)phenyl]-trans-4-(3-hydroxypropyl)cyclohexanol, which is a compound commonly used to study the endocannabinoid system.

Another data set has as its system C57BL6 male mice. Description: THC drug discrimination model. The data set is classed as in vivo. An excerpt: Drug discrimination is a behavioral model of the interoceptive effects of a compound. This pharmacologically selective model has high predictive validity, producing a strong correlation between drugs that have sharing discriminative stimulus properties in animals and drugs that humans identify as having similar subjective effects. FIG. 3 provides the results of this study, in which C57BL6 male mice (n=8) were trained to discriminate the reference drug (THC) using a discrimination procedure similar to that described in Wiley et al., Neuropharmacology 75, 145-154 (2013), Van et al., Eur. J. Pharmacol. 615, 102-107, and Wiley et al., J. Pharmacol. Exp. Ther. 354, 328-339 (2015), which are incorporated herein by reference in their entireties. For each session, the percentage of responses on the drug-associated lever and response rate response(s) were calculated.

A further data set concerns the target T2, CB1 receptor (Mus musculus, UniProt P47746).
T2 construct: from tissue; host or cells: brain of living B6 mice (in vivo PET)
Description: PET target engagement with CB1 radiotracer 11C-JHU75528. The format is in vivo. The following applies: male and female B6 mice, IP pretreatment. The method, then:
FIG. 5A provides a representative image of target specificity of Compound 3 for the CB1 receptor in mice along with quantification. […] The well-characterized CB1 radiotracer ^11C-JHU75528 was used for this purpose. A baseline response for each animal (2 male and 2 female mice) was first established using the vehicle and tracer (~10 MBq in 0.1-0.15 ml volume, tail vein catheter). Following a 48-hr washout, animals were administered Compound 3 via intraperitoneal (IP) injection followed by the probe. PET image acquisition by dynamic scanning was performed for 65 min after the second injection with energy window of 350-700 KeV. […] The PET images were normalized to the standardized uptake value (SUV) unit. Two-tissue compartmental model was applied using the PKIN module in PMOD 4.0 software. See, e.g., FIG. 5B, where quantification of the signal confirmed a blocking effect on cerebral uptake. Compound 3 blocked ^11C-JHU75528 uptake, confirming in vivo activity.

A further data set has as its system male C57BL/6J mice. Description: reversal of diet-induced obesity (DIO) in mice. The format is in vivo. The following applies: oral, 1x daily, 5 days per week. As for the experimental part: Preconditioned male C57BL/6J mice were purchased from the Jackson Laboratories (Bar Harbor, Maine) at 18 weeks of age. These animals were maintained either on ad libitum standard diet (SD) with 10% fat (D12450B) or on 60% high fat diet (HFD; D12492) from Research Diets (New Brunswick, NJ.) Animals were dosed by intragastric gavage once daily Monday-Friday (5 days per week) with either vehicle (0.5% sodium carboxymethylcellulose with 1% NMP and 0.3% Tween 80 in de-ionized water) or Compound 3 suspended in the vehicle. Body weights were recorded at regular intervals. Organs were removed and processed as has been described in the legend of FIG. 4. Biomarkers of efficacy were measured including circulating enzymes, liver weight and liver adiposity as indicated.
Data were reported as mean (FIG. 4A) or mean and range (FIGS. 4B and 4C). […] Hepatic statosis was reduced, as assessed using Oil Red O staining (FIG. 4G), with representative images shown as FIGS. 4H, 4I, and 4J. Significance was calculated using ANOVA with Fisher's test (p<0.05*, 0.01**, 0.001***, 0.0001****).

Data set [2] addresses T1, human CB1. Description: suppression of basal signaling in fluorescent calcium mobilization assay (inverse agonism). The format is cell-based. The method, then:
A functional fluorescent calcium mobilization was performed in CHO cells expressing human CB1 along with Gqα16. […] The EC50 values in the presence and absence of the antagonist are used to calculate antagonist apparent equilibrium dissociation constant (Ke). Suppression of basal signaling in the absence of any stimulation/agonism was measured using the same approach. […] Provided data are representative of a minimum of three experiments and were fitted using non-linear regression analyses in GraphPad Prism.

Data set [3] deals with T1, human CB1. Description: radioligand displacement assay using [3H]CP55940 in CHO cell membrane preparations. The format is binding. The conditions noted are these: [3H]CP55940 displacement, CHO cell membranes overexpressing human CB1; read-out: Ki hCB1.
Excerpt: as §1

Sequence of human CB2 (P34972 whole entry): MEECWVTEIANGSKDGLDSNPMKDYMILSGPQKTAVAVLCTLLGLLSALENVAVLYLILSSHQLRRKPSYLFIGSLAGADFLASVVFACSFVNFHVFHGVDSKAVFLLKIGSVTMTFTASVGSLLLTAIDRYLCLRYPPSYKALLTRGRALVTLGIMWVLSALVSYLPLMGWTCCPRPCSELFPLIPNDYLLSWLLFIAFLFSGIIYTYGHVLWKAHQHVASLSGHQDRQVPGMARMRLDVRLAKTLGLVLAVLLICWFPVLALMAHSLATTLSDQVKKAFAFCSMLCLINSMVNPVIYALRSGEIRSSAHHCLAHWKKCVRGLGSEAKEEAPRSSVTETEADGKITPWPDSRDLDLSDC
T1 sequence (P21554 whole entry): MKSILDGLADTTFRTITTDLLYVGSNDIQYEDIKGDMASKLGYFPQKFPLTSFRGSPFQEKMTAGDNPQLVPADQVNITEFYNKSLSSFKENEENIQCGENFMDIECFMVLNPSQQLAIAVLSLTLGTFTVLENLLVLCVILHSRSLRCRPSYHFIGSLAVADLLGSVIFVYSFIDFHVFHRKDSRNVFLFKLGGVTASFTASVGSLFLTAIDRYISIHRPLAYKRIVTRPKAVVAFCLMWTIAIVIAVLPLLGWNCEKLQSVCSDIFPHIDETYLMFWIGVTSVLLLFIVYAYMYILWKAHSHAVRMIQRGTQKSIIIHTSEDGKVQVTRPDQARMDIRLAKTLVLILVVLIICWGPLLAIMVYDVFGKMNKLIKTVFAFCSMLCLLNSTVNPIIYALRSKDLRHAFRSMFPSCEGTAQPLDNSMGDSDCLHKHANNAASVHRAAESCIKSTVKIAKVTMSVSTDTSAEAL
T2 sequence (P47746 whole entry): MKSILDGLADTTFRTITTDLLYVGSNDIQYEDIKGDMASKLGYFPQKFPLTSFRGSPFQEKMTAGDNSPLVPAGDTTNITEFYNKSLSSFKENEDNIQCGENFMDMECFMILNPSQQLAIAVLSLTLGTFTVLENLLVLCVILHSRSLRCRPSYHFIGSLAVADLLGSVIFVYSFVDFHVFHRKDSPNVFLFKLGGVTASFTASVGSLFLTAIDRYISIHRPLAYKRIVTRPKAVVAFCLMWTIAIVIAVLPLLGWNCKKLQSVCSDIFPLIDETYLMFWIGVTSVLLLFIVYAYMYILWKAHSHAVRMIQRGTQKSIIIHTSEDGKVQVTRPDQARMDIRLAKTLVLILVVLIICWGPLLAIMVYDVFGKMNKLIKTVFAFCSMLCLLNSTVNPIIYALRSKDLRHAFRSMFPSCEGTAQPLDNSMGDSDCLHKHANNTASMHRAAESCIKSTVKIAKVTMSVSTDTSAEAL

On to `O=C(Cc1ccc(F)cc1F)NC1CCN(c2ncnc3c2nc(-c2ccccc2Cl)n3-c2ccc(Cl)cc2)CC1` [Compound 3, N-{1-[8-(2-Chlorophenyl)-9-(4-chlorophenyl)-9H-purin-6-yl]piperidin-4-yl}-2-(2,4-difluorophenyl)acetamide], for which, in “HLM stability”, the “HLM HL” value worked out at 133 min and the microsomal CLint amounted to 9 µL/min/mg. The pKd on human CB1 [1] was 9.10. In addition, the “antagonism: shift of the CP55,940 curve” value on human CB1 [1] (pre-incubation with antagonist) is “rightward shift”. Moreover, the “Selectivity Ki (CB2/CB1)” value on human CB2 turned out to be 510. Besides, in the data set with C57BL6 male mice (compared to controls), the response rates entry is reported as “not significantly altered”. Besides, in the data set on C57BL6 male mice (compared with rimonabant), the “maximum inhibition of THC drug discrimination” value is listed as “comparable to that of rimonabant”. Besides, in the data set on C57BL6 male mice (mice trained on 5.6 mpk THC, 3, 5.6 and 10 mpk antagonist), the THC drug discrimination entry is given as “antagonize”. For the same molecule, on CB1 receptor, the “11C-JHU75528 cerebral uptake (PET)” value is listed as “blocked”. Moreover, in the data set with male C57BL/6J mice, the body weight result is “significantly reduced”, the “circulating transaminase ALT” value is listed as “reduce”, the “circulating transaminase AST” value is reported as “reduce” and the hepatic cholesterol content result is given as “decrease”. In addition, the “hepatic steatosis (Oil Red O staining)” value in the data set with male C57BL/6J mice is recorded as “reduced”. Further, in the data set on male C57BL/6J mice (normalized to tibia length), the epididymal adipose weight entry was “significantly reduced” and the liver weight result is on record as “significantly reduced”. For the same molecule, the “effect on basal signaling (inverse agonism)” value at human CB1 [2] (absence of any stimulation/agonism) is given as “partial inverse agonist”. Also, the Emax at human CB1 [2] (read-out: partial suppression of maximal response (basal signaling), % of rimonabant Emax) was about 30%. Also, the pKi at human CB1 [3] was 8.96.
Consider `CC1(NC(=O)Cc2ccc(F)cc2)CCN(c2ncnc3c2nc(-c2ccccc2Cl)n3-c2ccc(Cl)cc2)CC1` [Compound 5, N-{1-[8-(2-Chlorophenyl)-9-(4-chlorophenyl)-9H-purin-6-yl]-4-methylpiperidin-4-yl}-2-(4-fluorophenyl)acetamide], for which the pKd at human CB1 [1] was 8.74.
In the case of `O=C(Cc1ccccc1F)NC1CCN(c2ncnc3c2nc(-c2ccccc2Cl)n3-c2ccc(Cl)cc2)CC1` [Compound 1, N-{1-[8-(2-Chlorophenyl)-9-(4-chlorophenyl)-9H-purin-6-yl]piperidin-4-yl}-2-(2-fluorophenyl)acetamide], in “HLM stability”, the “HLM HL” value was found to be 146 min and the microsomal CLint amounted to 9 µL/min/mg. The pKd on human CB1 [1] is 9.00. Moreover, the “Selectivity Ki (CB2/CB1)” value at human CB2 turned out to be 110. Also, the pKi at human CB1 [3] was 8.82.
As for `O=C(Cc1ccc(F)cc1)NC1CCN(c2ncnc3c2nc(-c2ccccc2Cl)n3-c2ccc(Cl)cc2)CC1` [Compound 2, N-{1-[8-(2-Chlorophenyl)-9-(4-chlorophenyl)-9H-purin-6-yl]piperidin-4-yl}-2-(4-fluorophenyl)acetamide], in the data set “HLM stability”, the “HLM HL” value came out at 150 min and the microsomal CLint is 8 µL/min/mg. Also, at human CB1 [1], the pKd was 9.00. For the same molecule, at human CB2, the “Selectivity Ki (CB2/CB1)” value is given as 210. Also, the pKi at human CB1 [3] is 8.85.
In the case of `CC1(NC(=O)Cc2ccccc2F)CCN(c2ncnc3c2nc(-c2ccccc2Cl)n3-c2ccc(Cl)cc2)CC1` [Compound 4, N-{1-[8-(2-Chlorophenyl)-9-(4-chlorophenyl)-9H-purin-6-yl]-4-methylpiperidin-4-yl}-2-(2-fluorophenyl)acetamide], the pKd at human CB1 [1] is 8.42.
